US8993637B2 (priority 2013, dated 2015)

Legend:
[1] = test system: ERK1/2, JNK1/2, p38 in RAW 264.7 macrophages; assay: MAPK phosphorylation (Western blotting) in LPS-activated macrophages; assay type: cell-based, murine; conditions: Citral 10 μg/ml; LPS 1 μg/ml 0-60 min; p<0.05
Text: (§1) RAW-Blue™ cells (Murine macrophages RAW264.7 stably transfected with the NF-κB reporter gene) purchased from InvivoGen (San Diego, Calif.). LPS (from Escherichia coli 0111:B4) and mouse antibodies against phospho-ERK1/2, phospho-JNK1/2, and phospho-p38 (all from Sigma, St. Louis, Mo.). Rabbit antibodies against mouse ERK1, JNK1, and p38, and HRP-labeled second antibodies were purchased from Santa Cruz Biotechnology, and IL-1β, IL-6, and TNF-α ELISA kits from R&D Systems. ROS production assay, NO production assay, NF-κB reporter assay, ELISA, and Western blotting were performed as described previously.

[2] = test system: p47phox, Nrf2, NQO1, HO-1; assay: Mouse FSGS model: renal p47phox, nuclear Nrf2, NQO1 (Western blot) and HO-1 (ELISA); assay type: in vivo
Method: A progressive type of mouse FSGS model was used, particularly characterized by EPHLs, a key histopathology index of progression of FSGS, peri-glomerular inflammation, and progressive glomerular hyalinosis/sclerosis. The FSGS model was induced in 8-week-old male BALB/c mice (National Laboratory Animal Center, Taipei, Taiwan) by intravenous injection of a single dose of adriamycin (0.10 mg/10 g body weight) (Pfizer, New York, N.Y.) as described previously. […] Age- and sex-matched BALB/c mice were used as normal controls. Urine samples were collected in metabolic cages on days 3, 7, 14, 21, and 28. Renal cortical tissues and blood samples were collected when the mice were sacrificed and stored appropriately for further analysis. The concentration of urine protein was determined using BCA kits (Pierce, Rockford, Ill.) as described previously and normalized to urine creatinine (Cr) levels measured using kits (Wako Pure Chemical Industries, Osaka, Japan), as described previously. Serum levels of blood urea nitrogen (BUN) and Cr were determined using BUN kits and Cr kits (both from Fuji Dry-Chem Slide, Fuji Film Medical, Tokyo, Japan), as described previously. Cytoplasmic and nuclear proteins from renal tissues were prepared using a kit (Active Motif, Tokyo, Japan) according to the manufacturer's instructions and target proteins detected by immunoblotting using goat antibodies against mouse Nrf2 or p47^phox, (Santa Cruz Biotechnology, Santa Cruz, Calif.) or rabbit antibodies against mouse NQO1 (Abcam), caspase-3, caspase-8, or caspase-9 (all from Cell Signaling Technology, MA) or Bcl2 or Bax (both from Santa Cruz Biotechnology), then with horseradish-conjugated rabbit anti-goat IgG antibodies or goat-anti-rabbit IgG antibodies (both from Santa Cruz Biotechnology) as described previously. Anti-β-actin antibody (Santa Cruz Biotechnology) was used as internal controls for the nuclear and cytosolic target proteins, respectively. Renal HO-1 levels were measured using a commercial ELISA kit (R&D Systems, Minneapolis, Minn.) according to the manufacturer's instructions.

[3] = test system: mouse FSGS model (adriamycin-induced, BALB/c mice); assay: Mouse FSGS model: renal histopathology (H&E) and Col-IV immunohistochemistry; assay type: in vivo; conditions: days 14 and 28, Citral 200 mg/kg daily by gavage, p<0.01
Method: A progressive type of mouse FSGS model was used, particularly characterized by EPHLs, a key histopathology index of progression of FSGS, peri-glomerular inflammation, and progressive glomerular hyalinosis/sclerosis. The FSGS model was induced in 8-week-old male BALB/c mice (National Laboratory Animal Center, Taipei, Taiwan) by intravenous injection of a single dose of adriamycin (0.10 mg/10 g body weight) (Pfizer, New York, N.Y.) as described previously. […] Age- and sex-matched BALB/c mice were used as normal controls. Urine samples were collected in metabolic cages on days 3, 7, 14, 21, and 28. Renal cortical tissues and blood samples were collected when the mice were sacrificed and stored appropriately for further analysis. The concentration of urine protein was determined using BCA kits (Pierce, Rockford, Ill.) as described previously and normalized to urine creatinine (Cr) levels measured using kits (Wako Pure Chemical Industries, Osaka, Japan), as described previously. Serum levels of blood urea nitrogen (BUN) and Cr were determined using BUN kits and Cr kits (both from Fuji Dry-Chem Slide, Fuji Film Medical, Tokyo, Japan), as described previously.
Renal tissues were formalin-fixed, embedded in paraffin, and sections (4 μm) prepared and stained with hematoxylin and eosin (H&E) for renal histopathology as described previously or TUNEL stained for apoptosis as described previously. Renal pathology was examined and renal lesions scored as described previously. For EPHLs and sclerosis, at least 50 glomeruli in sections were examined for each mouse. To detect apoptosis in renal tissues, TUNEL staining was performed using an in situ apoptosis detection kit (Chemicon, Temecula, Calif.) according to the manufacturer's instructions. For immunohistochemistry, methyl Carnoy solution-fixed and paraffin-embedded renal sections were prepared and incubated with goat antibodies against mouse collagen IV (Col-IV) (Southern Biotech, AL) or rabbit antibodies against phosphorylated mouse NF-κB p65 (Cell Signaling Technology, MA), F4/80 (Serotec, Raleigh, N.C.), or CD3 (Serotec), then with horseradish-conjugated rabbit anti-goat IgG antibodies or swine anti-rabbit IgG antibodies (both from Dako, Carpinteria, Calif.). Quantitative image analysis software (Pax-it; Paxcam, VIIIa Park, Ill.) was used to score Col-IV staining and the number of phosphorylated NF-κB p65-, CD3-, F4/80-, or TUNEL-positive cells as described previously.

RAW 264.7 macrophages = assay: ROS production assay in LPS-activated macrophages; assay type: cell-based, murine; conditions: Citral 10 μg/ml; 30 min before and during LPS (1 μg/ml) stimulation, 0-4 h
Method: as §1, with “ROS production was measured as the relative fluorescence intensity. […] The data are expressed as the mean±SD for three separate experiments. *p<0.05, **p<0.01 compared to the LPS-treated group. RAW-Blue™” for “RAW-Blue™”

[4] = Adverse side effects in animals; conditions: in vivo

SMILES: CC(C)=CCCC(C)=CC=O (racemic) [Citral, 3,7-dimethyl-2,6-octadienal]
- LPS-induced phosphorylation of ERK1/2 [1]: significantly inhibited
- LPS-induced phosphorylation of JNK1/2 [1]: significantly inhibited
- decrease of nuclear Nrf2 expression ([2]; day 14, kidney): inhibited at day 14 in FSGS+Citral mice, although not statistically significant
- increase of renal p47phox protein levels ([2]; day 28, cytosolic, p<0.01): inhibited
- cytosolic levels of NQO1 ([2]; day 28, relative to normal control mice, p<0.01): significantly higher
- nuclear Nrf2 levels ([2]; day 28, vs FSGS+vehicle (p<0.005) and normal control mice (p<0.05)): greatly increased
- renal HO-1 levels ([2]; days 14 and 28, vs FSGS+vehicle mice, p<0.05 or p<0.01): significantly elevated
- glomerular EPHLs ([3]; H&E): greatly decreased
- glomerular hyalinosis/sclerosis ([3]; H&E): greatly decreased
- peri-glomerular inflammation ([3]; H&E): greatly decreased
- renal Col-IV expression ([3]; immunohistochemistry): markedly inhibited
- LPS-induced increase in ROS production (RAW 264.7 macrophages): reduced
- adverse side effects to animals [4]: no apparent adverse side effects
